From patent US20120164104A1, “Composition and Methods of Treating Viral Infections and Viral Induced Tumors” (Chimerix, Inc., priority 2009, published 2012)
Each block holds one compound with its values, some of them ahead of it.

Tests used:
C33A = experiment: Cell proliferation assay (MTS or SRB), C33A; format: cell-based, human; conditions: Cervical, 3 days, read-out: IC50 (cell growth inhibition)
Experimental: (§1) In vitro cell proliferation assays were performed using a 96-well plate based MTSassay (CellTiter 96° AqueousOne Solution Cell Proliferation Assay, Promega) or SRB (Sulforhodamine-B) assay (1-3). Briefly, cells were plated in 100 μl medium on day 0 in 96-well microtiter plates (Falcon #3072). On day 1, 10 μl of serial dilutions of each compound (Nine 1:2 dilutions with a starting concentration of 100 μM; in some cases, a starting concentration of 400 μM (CMX001 or Cidofovir) or 1 μM (some standard agents)) were added in triplicates to the plates. For standard agents using DMSO as solvent, serial dilutions of DMSO with a starting concentration of 0.5% were also included as a vehicle control.
(§2) After incubation for 3 days at 37° C. in a humidified incubator, viable cells were measured either by MTS or SRB assay. For MTS assay, 20 μl of a 20:1 mixture of (3-(4,5-dimethylthiazol-2-yl)-5-(3-carboxymethoxyphenyl)-2-(4-sulfophenyl)-2H-tetrazolium, inner salt (MTS, 2 mg/ml) and an electron coupling reagent, phenazine methosulfate (PMS, 0.92 mg/ml in DPBS), was added to each well and incubated for 3 hours at 37° C. Absorbance was measured using a BioTek Synergy™ HT Multiple Detection microplate reader at 490 nm. For SRB assay, cells were fixed in situ with 50 μL of cold trichloroacetic acid (TCA, final concentration at 10% w/v) for 60 minutes. Cells were then washed 5 times with H2O and air-dried.
(§3) Next, cells were stained with 20 μL of 0.2% SRB in 1% acetic acid and incubated at room temperature for 30 minutes and unbound SRB was removed by washing 5 times with 1% acetic acid and air-dried. Finally, bound SRB stain was solubilized in 50 μL of 50 μM Tris buffer before taking an optical density measurement at 570 nm using the BioTek microplate reader. The growth inhibition data were expressed as the percentage of cell survival calculated from the background corrected absorbance. The surviving fraction of cells was determined by dividing the mean absorbance values of the test agent-treated samples by the mean absorbance values of untreated control. […]

SK-OV-3 = experiment: Cell proliferation assay (MTS or SRB), SK-OV-3; format: cell-based, human; conditions: SK-OV-3, Ovarian, 3 days; read-out: IC50 (cell growth inhibition)
Experimental: as §1, §2, §3

SiHa = experiment: Cell proliferation assay (MTS or SRB), SiHa; format: cell-based, human; conditions: Cervical, 3 days, read-out: IC50 (cell growth inhibition)
Experimental: as §1, §2, §3

OVCAR-3 = experiment: Cell proliferation assay (MTS or SRB), OVCAR-3; format: cell-based, human; conditions: OVCAR-3, Ovarian, 3 days; read-out: IC50 (cell growth inhibition)
Experimental: as §1, §2, §3

A2058 = experiment: Cell proliferation assay (MTS or SRB), A2058; format: cell-based; conditions: Homo sapiens, 72 h; A2058, Skin (melanoma), 3 days; read-out: IC50 (cell growth inhibition)
Experimental: as §1, §2
(§4) Next, cells were stained with 20 μL of 0.2% SRB in 1% acetic acid and incubated at room temperature for 30 minutes and unbound SRB was removed by washing 5 times with 1% acetic acid and air-dried. Finally, bound SRB stain was solubilized in 50 μL of 50 μM Tris buffer before taking an optical density measurement at 570 nm using the BioTek microplate reader. The growth inhibition data were expressed as the percentage of cell survival calculated from the background corrected absorbance. The surviving fraction of cells was determined by dividing the mean absorbance values of the test agent-treated samples by the mean absorbance values of untreated control.
(§5) Raw data were acquired using a BioTek Synergy™ HT Multiple Detection microplate reader and imported into Microsoft Excel for analysis. The average signal of each treatment was calculated from the triplicates after subtracting the blank signals. The percentage survival values were calculated using the following formula: % survival=(average signal of the drug treatment/average signal of untreated controls)×100. The data were finally imported into the Prism 4 software (GraphPad Software, San Diego, Calif.) to generate the dose-activity curves using non-linear regression curve fit and to calculate the IC50 values.

SK-MEL-2 = experiment: Cell proliferation assay (MTS or SRB), SK-MEL-2; format: cell-based; conditions: Homo sapiens, 72 h; SK-MEL-2, Skin (melanoma), 3 days; read-out: IC50 (cell growth inhibition)
Experimental: as §1, §2, §4, §5

MDA-231 = experiment: Cell proliferation assay (MTS or SRB), MDA-231; format: cell-based; conditions: Homo sapiens, MDA-MB-231, 72 h; MDA-231, Breast, 3 days; read-out: IC50 (cell growth inhibition)
Experimental: as §1, §2, §3

H460 = experiment: Cell proliferation assay (MTS or SRB), H460; format: cell-based; conditions: Homo sapiens, NCI-H460, 72 h; H460, Lung, 3 days; read-out: IC50 (cell growth inhibition)
Experimental: as §1, §2, §3

A549 = experiment: Cell proliferation assay (MTS or SRB), A549; format: cell-based; conditions: Homo sapiens, 72 h; A549, Lung, 3 days; read-out: IC50 (cell growth inhibition)
Experimental: as §1, §2, §3

DU 145 = experiment: Cell proliferation assay (MTS or SRB), DU 145; format: cell-based; conditions: Homo sapiens, 72 h; DU 145, Prostate, 3 days; read-out: IC50 (cell growth inhibition)
Experimental: as §1, §2, §3

PC-3 = experiment: Cell proliferation assay (MTS or SRB), PC-3; format: cell-based; conditions: Homo sapiens, 72 h; PC-3, Prostate, 3 days; read-out: IC50 (cell growth inhibition)
Experimental: as §1, §2, §3

MCF-7 = experiment: Cell proliferation assay (MTS or SRB), MCF-7; format: cell-based; conditions: Homo sapiens, MCF7, 72 h; MCF-7, Breast, 3 days; read-out: IC50 (cell growth inhibition)
Experimental: as §1, §2, §3

Hep G2 = experiment: Cell proliferation assay (MTS or SRB), Hep G2; format: cell-based; conditions: Homo sapiens, HepG2, 72 h; Hep G2, Liver, 3 days; read-out: IC50 (cell growth inhibition)
Experimental: as §1, §2, §3

Caki-1 = experiment: Cell proliferation assay (MTS or SRB), Caki-1; format: cell-based; conditions: Homo sapiens, 72 h; Caki-1, Kidney, 3 days; read-out: IC50 (cell growth inhibition)
Experimental: as §1, §2, §3

SK-HEP-1 = experiment: Cell proliferation assay (MTS or SRB), SK-HEP-1; format: cell-based; conditions: Homo sapiens, SK-HEP1, 72 h; SK-HEP-1, Liver, 3 days; read-out: IC50 (cell growth inhibition)
Experimental: as §1, §2, §3

Caki-2 = experiment: Cell proliferation assay (MTS or SRB), Caki-2; format: cell-based; conditions: Homo sapiens, 72 h; Caki-2, Kidney, 3 days; read-out: IC50 (cell growth inhibition)
Experimental: as §1, §2, §3

SW 780 = experiment: Cell proliferation assay (MTS or SRB), SW 780; format: cell-based; conditions: Homo sapiens, SW780, 72 h; SW 780, Bladder, 3 days; read-out: IC50 (cell growth inhibition)
Experimental: as §1, §2, §3

SCaBER = experiment: Cell proliferation assay (MTS or SRB), SCaBER; format: cell-based; conditions: Homo sapiens, 72 h, Bladder, 3 days, read-out: IC50 (cell growth inhibition)
Experimental: as §1, §2, §3

MIA PaCa-2 = experiment: Cell proliferation assay (MTS or SRB), MIA PaCa-2; format: cell-based; conditions: Homo sapiens, 72 h; MIA PaCa-2, Pancreatic, 3 days; read-out: IC50 (cell growth inhibition)
Experimental: as §1, §2, §3

PANC-1 = experiment: Cell proliferation assay (MTS or SRB), PANC-1; format: cell-based; conditions: Homo sapiens, 72 h; PANC-1, Pancreatic, 3 days; read-out: IC50 (cell growth inhibition)
Experimental: as §1, §2, §3

HT-29 = experiment: Cell proliferation assay (MTS or SRB), HT-29; format: cell-based, human; conditions: HT-29, Colon, 3 days; read-out: IC50 (cell growth inhibition)
Experimental: as §1, §2, §3

HCT-116 = experiment: Cell proliferation assay (MTS or SRB), HCT-116; format: cell-based, human; conditions: HCT-116, Colon, 3 days; read-out: IC50 (cell growth inhibition)
Experimental: as §1, §2, §3

BK virus = experiment: Antiviral activity against BK virus in RPTEC cells (viral DNA by qPCR, 5 days); format: cell-based; conditions: for EC50: Betapolyomavirus hominis, RPTEC, RPTEC cells
Experimental: In order to test the activity of CMX001 to inhibit replication of BK virus, stocks of BK virus were prepared in HFF cells and dilutions of the virus stocks were used to infect primary human renal tubular epithelial cells (RPTECs). CMX001 were then added to the wells containing the infected cells and the plates were incubated for 5 days. Total DNA was prepared from the plates and viral DNA was quantified by qPCR.

SMILES: N.N.[Cl][Pt][Cl] [Cisplatin]
IC50 (C33A): 1.2 µM | IC50 (SK-OV-3): 9.2 µM | IC50 (SiHa): 15.5 µM | IC50 (OVCAR-3): 4.9 µM

SMILES: CC(=O)O[C@@]12CO[C@@H]1C[C@H](O)[C@@]1(C)C(=O)[C@H](O)C3=C(C)[C@@H](OC(=O)[C@H](O)[C@@H](NC(=O)OC(C)(C)C)c4ccccc4)C[C@@](O)([C@@H](OC(=O)c4ccccc4)[C@H]21)C3(C)C [Docetaxel]
IC50 (MDA-231): 0.0028 µM | IC50 (H460): 0.0042 µM | IC50 (A549): 0.0014 µM | IC50 (DU 145): 0.0024 µM | IC50 (PC-3): 0.0011 µM | IC50 (MCF-7): 0.015 µM

SMILES: O=C1[O][Pt]2([NH][C@@H]3CCCC[C@H]3[NH]2)[O]C1=O [Oxaliplatin]
IC50 (HT-29): 0.36 µM | IC50 (HCT-116): 0.48 µM

SMILES: Nc1nc(O)c2ncn(COC(CO)CO)c2n1 [ganciclovir]
EC50 (BK virus; virus dilution 1:10): 89 µM | EC50 (BK virus; virus dilution 1:50): > 100 µM | EC50 (BK virus; virus dilution 1:100): 70.8 µM | activity against BK virus replication (BK virus; RPTECs, in words): essentially inactive

Further lines, with some results ahead:

IC50 (SK-MEL-2): > 100 µM
SMILES: CN(C)/N=N/c1[nH]cnc1C(N)=O [DTIC, Dacarbazine]
IC50 (A2058): > 100 µM

IC50 (SK-HEP-1): 0.029 µM
SMILES: COc1cccc2c1C(=O)c1c(O)c3c(c(O)c1C2=O)C[C@@](O)(C(=O)CO)C[C@@H]3O[C@H]1C[C@H](N)[C@H](O)[C@H](C)O1 [Doxorubicin]
IC50 (Hep G2): 0.05 µM | IC50 (Caki-1): 0.074 µM | IC50 (Caki-2): 1.23 µM | IC50 (SW 780): 0.16 µM | IC50 (SCaBER): 0.06 µM

IC50 (MIA PaCa-2): 0.029 µM | IC50 (PANC-1): 0.13 µM
SMILES: Nc1ccn([C@@H]2O[C@H](CO)[C@@H](O)C2(F)F)c(=O)n1 [Gemcitabine]

IC50 (SK-MEL-2): > 100 µM
SMILES: Cn1nnc2c(C(N)=O)ncn2c1=O [temozolomide]
IC50 (A2058): > 100 µM
